# Assays:
# Type in all cases: cell-based
# HL-60(TB) = experiment: NCI In-Vitro Testing, Leukemia
# K-562 = experiment: NCI In-Vitro Testing, Leukemia
# RPMI-8226 = experiment: NCI In-Vitro Testing, Leukemia
# AS45/ATCC = experiment: NCI In-Vitro Testing, Non-Small Cell Lung Cancer
# EKVX = experiment: NCI In-Vitro Testing, Non-Small Cell Lung Cancer
# NCI-H322M = experiment: NCI In-Vitro Testing, Non-Small Cell Lung Cancer
# NCI-H460 = experiment: NCI In-Vitro Testing, Non-Small Cell Lung Cancer
# HCT-116 = experiment: NCI In-Vitro Testing, Colon Cancer
# HCT-15 = experiment: NCI In-Vitro Testing, Colon Cancer
# SF-295 = experiment: NCI In-Vitro Testing, CNS Cancer
# SF-539 = experiment: NCI In-Vitro Testing, CNS Cancer
# LOXIMVI = experiment: NCI In-Vitro Testing, Melanoma
# MALME-3M = experiment: NCI In-Vitro Testing, Melanoma
# M14 = experiment: NCI In-Vitro Testing, Melanoma
# OVCAR-3 = experiment: NCI In-Vitro Testing, Ovarian Cancer
# OVCAR-5 = experiment: NCI In-Vitro Testing, Ovarian Cancer
# ACHN = experiment: NCI In-Vitro Testing, Renal Cancer
# RXF 399 = experiment: NCI In-Vitro Testing, Renal Cancer
structure (smiles),measurement,setting,value
Nc1nc2c(c(Nc3ccc(Cl)cc3)n1)-c1ccccc1C2 [AAG145-136],GI50,HL-60(TB),1.50E−7 Molar
same,LC50,HL-60(TB),>1.00E−4 Molar
same,TGI,HL-60(TB),>1.00E−4 Molar
same,Percent Growth,HL-60(TB); Log10 Concentration −4.0 Molar,12%
same,Percent Growth,HL-60(TB); Log10 Concentration −5.0 Molar,13%
same,Percent Growth,HL-60(TB); Log10 Concentration −6.0 Molar,23%
same,Percent Growth,HL-60(TB); Log10 Concentration −7.0 Molar,56%
same,Percent Growth,HL-60(TB); Log10 Concentration −8.0 Molar,87%
same,GI50,K-562,3.56E−7 Molar
same,LC50,K-562,>1.00E−4 Molar
same,TGI,K-562,>1.00E−4 Molar
same,Percent Growth,K-562; Log10 Concentration −4.0 Molar,26%
same,Percent Growth,K-562; Log10 Concentration −5.0 Molar,16%
same,Percent Growth,K-562; Log10 Concentration −6.0 Molar,20%
same,Percent Growth,K-562; Log10 Concentration −7.0 Molar,89%
same,Percent Growth,K-562; Log10 Concentration −8.0 Molar,103%
same,GI50,RPMI-8226,4.89E−7 Molar
same,LC50,RPMI-8226,>1.00E−4 Molar
same,TGI,RPMI-8226,>1.00E−4 Molar
same,Percent Growth,RPMI-8226; Log10 Concentration −4.0 Molar,7%
same,Percent Growth,RPMI-8226; Log10 Concentration −5.0 Molar,11%
same,Percent Growth,RPMI-8226; Log10 Concentration −6.0 Molar,32%
same,Percent Growth,RPMI-8226; Log10 Concentration −7.0 Molar,89%
same,Percent Growth,RPMI-8226; Log10 Concentration −8.0 Molar,96%
same,GI50,AS45/ATCC,4.34E−8 Molar
same,LC50,AS45/ATCC,>1.00E−4 Molar
same,TGI,AS45/ATCC,>1.00E−4 Molar
same,Percent Growth,AS45/ATCC; Log10 Concentration −4.0 Molar,7%
same,Percent Growth,AS45/ATCC; Log10 Concentration −5.0 Molar,15%
same,Percent Growth,AS45/ATCC; Log10 Concentration −6.0 Molar,21%
same,Percent Growth,AS45/ATCC; Log10 Concentration −7.0 Molar,33%
same,Percent Growth,AS45/ATCC; Log10 Concentration −8.0 Molar,30%
same,GI50,EKVX,2.71E−8 Molar
same,LC50,EKVX,>1.00E−4 Molar
same,TGI,EKVX,>1.00E−4 Molar
same,Percent Growth,EKVX; Log10 Concentration −4.0 Molar,4%
same,Percent Growth,EKVX; Log10 Concentration −5.0 Molar,26%
same,Percent Growth,EKVX; Log10 Concentration −6.0 Molar,68%
same,Percent Growth,EKVX; Log10 Concentration −7.0 Molar,68%
same,Percent Growth,EKVX; Log10 Concentration −8.0 Molar,101%
same,GI50,NCI-H322M,1.35E−6 Molar
same,LC50,NCI-H322M,>1.00E−4 Molar
same,TGI,NCI-H322M,>1.00E−4 Molar
same,Percent Growth,NCI-H322M; Log10 Concentration −4.0 Molar,39%
same,Percent Growth,NCI-H322M; Log10 Concentration −5.0 Molar,32%
same,Percent Growth,NCI-H322M; Log10 Concentration −6.0 Molar,53%
same,Percent Growth,NCI-H322M; Log10 Concentration −7.0 Molar,101%
same,Percent Growth,NCI-H322M; Log10 Concentration −8.0 Molar,103%
same,GI50,NCI-H460,1.93E−8 Molar
same,LC50,NCI-H460,>1.00E−4 Molar
same,TGI,NCI-H460,>1.00E−4 Molar
same,Percent Growth,NCI-H460; Log10 Concentration −4.0 Molar,3%
same,Percent Growth,NCI-H460; Log10 Concentration −5.0 Molar,3%
same,Percent Growth,NCI-H460; Log10 Concentration −6.0 Molar,15%
same,Percent Growth,NCI-H460; Log10 Concentration −7.0 Molar,23%
same,Percent Growth,NCI-H460; Log10 Concentration −8.0 Molar,61%
same,GI50,HCT-116,3.81E−8 Molar
same,LC50,HCT-116,>1.00E−4 Molar
same,TGI,HCT-116,>1.00E−4 Molar
same,Percent Growth,HCT-116; Log10 Concentration −4.0 Molar,6%
same,Percent Growth,HCT-116; Log10 Concentration −5.0 Molar,13%
same,Percent Growth,HCT-116; Log10 Concentration −6.0 Molar,13%
same,Percent Growth,HCT-116; Log10 Concentration −7.0 Molar,23%
same,Percent Growth,HCT-116; Log10 Concentration −8.0 Molar,87%
same,GI50,HCT-15,4.34E−7 Molar
same,LC50,HCT-15,>1.00E−4 Molar
same,TGI,HCT-15,1.22E−5 Molar
same,Percent Growth,HCT-15; Log10 Concentration −4.0 Molar,−39%
same,Percent Growth,HCT-15; Log10 Concentration −5.0 Molar,4%
same,Percent Growth,HCT-15; Log10 Concentration −6.0 Molar,29%
same,Percent Growth,HCT-15; Log10 Concentration −7.0 Molar,68%
same,Percent Growth,HCT-15; Log10 Concentration −8.0 Molar,94%
same,GI50,SF-295,5.47E−7 Molar
same,LC50,SF-295,>1.00E−4 Molar
same,TGI,SF-295,>1.00E−4 Molar
same,Percent Growth,SF-295; Log10 Concentration −4.0 Molar,17%
same,Percent Growth,SF-295; Log10 Concentration −5.0 Molar,20%
same,Percent Growth,SF-295; Log10 Concentration −6.0 Molar,34%
same,Percent Growth,SF-295; Log10 Concentration −7.0 Molar,95%
same,Percent Growth,SF-295; Log10 Concentration −8.0 Molar,105%
same,GI50,SF-539,3.81E−7 Molar
same,LC50,SF-539,>1.00E−4 Molar
same,TGI,SF-539,>1.00E−4 Molar
same,Percent Growth,SF-539; Log10 Concentration −4.0 Molar,2%
same,Percent Growth,SF-539; Log10 Concentration −5.0 Molar,20%
same,Percent Growth,SF-539; Log10 Concentration −6.0 Molar,31%
same,Percent Growth,SF-539; Log10 Concentration −7.0 Molar,77%
same,Percent Growth,SF-539; Log10 Concentration −8.0 Molar,101%
same,GI50,LOXIMVI,3.08E−7 Molar
same,LC50,LOXIMVI,>1.00E−4 Molar
same,TGI,LOXIMVI,>1.00E−4 Molar
same,Percent Growth,LOXIMVI; Log10 Concentration −4.0 Molar,15%
same,Percent Growth,LOXIMVI; Log10 Concentration −5.0 Molar,11%
same,Percent Growth,LOXIMVI; Log10 Concentration −6.0 Molar,16%
same,Percent Growth,LOXIMVI; Log10 Concentration −7.0 Molar,52%
same,Percent Growth,LOXIMVI; Log10 Concentration −8.0 Molar,106%
same,GI50,MALME-3M,>1.00E−4 Molar
same,LC50,MALME-3M,>1.00E−4 Molar
same,TGI,MALME-3M,>1.00E−4 Molar
same,Percent Growth,MALME-3M; Log10 Concentration −4.0 Molar,78%
same,Percent Growth,MALME-3M; Log10 Concentration −5.0 Molar,64%
same,Percent Growth,MALME-3M; Log10 Concentration −6.0 Molar,106%
same,Percent Growth,MALME-3M; Log10 Concentration −7.0 Molar,97%
same,Percent Growth,MALME-3M; Log10 Concentration −8.0 Molar,96%
same,GI50,M14,4.31E−7 Molar
same,LC50,M14,>1.00E−4 Molar
same,TGI,M14,>1.00E−4 Molar
same,Percent Growth,M14; Log10 Concentration −4.0 Molar,34%
same,Percent Growth,M14; Log10 Concentration −5.0 Molar,21%
same,Percent Growth,M14; Log10 Concentration −6.0 Molar,31%
same,Percent Growth,M14; Log10 Concentration −7.0 Molar,84%
same,Percent Growth,M14; Log10 Concentration −8.0 Molar,102%
same,GI50,OVCAR-3,2.48E−6 Molar
same,LC50,OVCAR-3,>1.00E−4 Molar
same,TGI,OVCAR-3,>1.00E−4 Molar
same,Percent Growth,OVCAR-3; Log10 Concentration −4.0 Molar,14%
same,Percent Growth,OVCAR-3; Log10 Concentration −5.0 Molar,22%
same,Percent Growth,OVCAR-3; Log10 Concentration −6.0 Molar,66%
same,Percent Growth,OVCAR-3; Log10 Concentration −7.0 Molar,86%
same,Percent Growth,OVCAR-3; Log10 Concentration −8.0 Molar,91%
same,LC50,OVCAR-5,>1.00E−4 Molar
same,TGI,OVCAR-5,>1.00E−4 Molar
same,Percent Growth,OVCAR-5; Log10 Concentration −4.0 Molar,58%
same,Percent Growth,OVCAR-5; Log10 Concentration −5.0 Molar,47%
same,Percent Growth,OVCAR-5; Log10 Concentration −6.0 Molar,56%
same,Percent Growth,OVCAR-5; Log10 Concentration −7.0 Molar,77%
same,Percent Growth,OVCAR-5; Log10 Concentration −8.0 Molar,96%
same,GI50,ACHN,3.42E−7 Molar
same,LC50,ACHN,>1.00E−4 Molar
same,TGI,ACHN,1.41E−5 Molar
same,Percent Growth,ACHN; Log10 Concentration −4.0 Molar,−22%
same,Percent Growth,ACHN; Log10 Concentration −5.0 Molar,4%
same,Percent Growth,ACHN; Log10 Concentration −6.0 Molar,21%
same,Percent Growth,ACHN; Log10 Concentration −7.0 Molar,83%
same,Percent Growth,ACHN; Log10 Concentration −8.0 Molar,89%
same,GI50,RXF 399,1.20E−5 Molar
same,LC50,RXF 399,>1.00E−4 Molar
same,TGI,RXF 399,6.26E−5 Molar
same,Percent Growth,RXF 399; Log10 Concentration −4.0 Molar,−14%
same,Percent Growth,RXF 399; Log10 Concentration −5.0 Molar,56%
same,Percent Growth,RXF 399; Log10 Concentration −6.0 Molar,91%
same,Percent Growth,RXF 399; Log10 Concentration −7.0 Molar,107%
same,Percent Growth,RXF 399; Log10 Concentration −8.0 Molar,108%
